Test results: patent publication US7763732B2, “Indole derivatives” (N.V. Organon, priority 2005, dated 2010)

System: mice
Assay: Formalin paw test in mice
Format: in vivo
Conditions: Mus musculus, intravenous, 5 min before 5% formalin s.c. into hind paw, Phase 2 = 20-30 min after formalin, read-out: ED50, inhibition of nociceptive behaviour of Phase 2
Protocol: Formalin Paw Test In Mice
Four-six groups of six mice were treated with vehicle and one of four to five doses of the test compound (typically between 0.03, 0.1, 3 and 10 μmol/kg), administered intravenously into the tail vein (vehicle: 10% Tween-80 in saline; injection volume 10 ml/kg). This injection was followed 5 minutes later by 20 μl of 5% formalin, which was administered sub-cutaneously to the dorsum of the left hind paw. Immediately after formalin administration the animal was placed in a test chamber and data acquisition, using a detection device (Automated Nociception Analyser (ANA); Department of Anesthesiology, University of California, San Diego), was started, independently for each chamber. The nociceptive behaviour was measured as the number of counts (licking, lifting, biting and flinching actions) detected within the two phases of nociception (Yaksh et al, 2001). The nociceptive behaviour between 0 and 5 min after formalin injection (Phase 1) and between 20 and 30 min after formalin injection (Phase 2) was recorded and number of counts for each mouse, compared to the mean number of counts for the vehicle treated animals, was calculated. Once values for each mouse were obtained, the mean and s.e.m. were calculated for each treatment group. The percent inhibition data were then used to calculate ED50 values for Phase 1 and Phase 2.

SMILES | ED50 [µmol/kg]
CCc1cccc2c(-c3nsc(CN4CCC(C(=O)NCCO)CC4)n3)cn(CC3CCOCC3)c12 [Example 10A, 7-Ethyl-3-[(5-{4-[(N-{2-hydroxy}ethyl)carboxamido]piperidin-1-yl}methyl)-(1,2,4]-thiadiazol-3-yl)-1-(tetrahydropyran-4-yl)methyl-1H-indole] | < 5
CS(=O)(=O)N(CCO)Cc1nc(-c2cn(CC3CCOCC3)c3c(Cl)cccc23)ns1 [Example 15, 7-Chloro-3-({5-[(N-{2-hydroxy}ethyl)-(N-{methylsulfonyl})amino]methyl}-([1,2,4]-thiadiazol-3-yl))-1-(tetrahydropyran-4-yl)methyl-1H-indole] | < 5
O=C(NCCO)C1CCN(Cc2nc(-c3cn(CC4CCOCC4)c4c(Cl)cccc34)no2)CC1 [Example 19] | < 5
CN(CC(N)=O)Cc1nc(-c2cn(CC3CCOCC3)c3c(Cl)cccc23)no1 [Example 20, 7-Chloro-3-[(5-{[N-(carboxamido)methyl]-N-methylamino}methyl)-([1,2,4]oxadiazol-3-yl)]-1-(tetrahydropyran-4-yl)methyl-1H-indole] | < 5
